Reference: patent US20250388551A1, “COMPOUNDS INDUCING PRODUCTION OF PROTEINS BY IMMUNE CELLS” (UNIVERSITE PARIS CITE, priority 2022, published 2025)

Test system: resting mouse B cells
Assay: IL-10 expression in TLR-, CD40- and BCR-stimulated B cells by flow cytometry
Type: cell-based
Conditions: 0.25 μM, stimulation through TLR4, TLR7/8, TLR9, CD40, IgM, 72 hours
Method: Resting mouse B cells were isolated from spleen by magnetic depletion of CD43^+ cells and stimulated through TLR4, TLR7/8, TLR9, CD40, and IgM as indicated for 3 consecutive days. Cell culture medium was supplemented with DMSO-vehicle control, C3 or N6 at 0.25 μM. B cells from C57BL/6 mice were used to determine autofluorescence in eGFP channel and IL-10.eGFP-IL-6.tdTomato mice were used to monitor IL-10 expression by flow cytometry at 72 hours. The percentage of viable/singlets/CD19^+/IL-10^+ cells is shown. Data are presented as mean±SD. n≥3 independent experiments.

Row | Structure (SMILES) | IL-10 expression in B cells (percentage of IL-10+ cells)
1 | CC(=O)Nc1ccc(C(=O)Nc2ccc(-c3nc4cc(NC(=O)c5ccc(NC(C)=O)cc5)ccc4[nH]3)cc2)cc1 [Compound C3] | increase IL-10 expression in B cells across a broad range of stimulation protocols

Test system: mouse B cell subsets (CD19+, follicular, marginal zone, blood B cells)
Assay: IL-10 expression, IL-10 secretion and plasma cell generation in B cell subsets, CpG-based culture
Conditions: 0.25 μM, 3 days
From the text: Resting mouse B cells were isolated from spleen by magnetic depletion of CD43^+ cells and total CD19^+ B cells, follicular B cells (CD19^+/CD21^low/−/CD23^high/CD1d^low) and marginal zone B cells (CD19^+/CD21^high/CD23^low/−/CD1d^hi) were purified by FACS. Total CD19^+ blood B cells were directly purified by FACS after red blood cell lysis. […] Generation of B220^low/CD138^high plasma cells was also quantified by flow cytometry. Data are presented as mean±SD. n≥3 independent experiments.

Row | Structure (SMILES) | differentiation of B cells into plasma cells (B220low/CD138high)
2 | CC(=O)Nc1ccc(C(=O)Nc2ccc(-c3nc4cc(NC(=O)c5ccc(NC(C)=O)cc5)ccc4[nH]3)cc2)cc1 [Compound C3] | increase

Same assay, conditions: 0.25 μM, 3 days, cell-free supernatants

Row | Structure (SMILES) | amount of IL-10 produced by stimulated B cells
3 | CC(=O)Nc1ccc(C(=O)Nc2ccc(-c3nc4cc(NC(=O)c5ccc(NC(C)=O)cc5)ccc4[nH]3)cc2)cc1 [Compound C3] | increase

Same assay, conditions: 0.25 μM, 3 days, flow cytometry

Row | Structure (SMILES) | proportion of activated B cells expressing IL-10
4 | CC(=O)Nc1ccc(C(=O)Nc2ccc(-c3nc4cc(NC(=O)c5ccc(NC(C)=O)cc5)ccc4[nH]3)cc2)cc1 [Compound C3] | increase

Test system: resting mouse B cells
Assay: Il10 mRNA expression in B cells (quantitative RT-PCR)
Type: cell-based
Conditions: 0.25 μM
Method: Resting mouse B cells were isolated from spleen by magnetic depletion of CD43^+ cells. B cells were incubated with DMSO-vehicle control or N6 (0.25 μM), as such, or in combination with CpG. mRNA was extracted at different time-points and il10/actin ratio was determined.
Resting mouse B cells were isolated from spleen by magnetic depletion of CD43^+ cells. B cells were incubated with DMSO vehicle control, or C3 or N6 at 0.25 μM for the indicated time, and Il10 mRNA induction was quantified by quantitative RT-PCR.

Row | Structure (SMILES) | Il10 transcription in unstimulated B cells
5 | CC(=O)Nc1ccc(C(=O)Nc2ccc(-c3nc4cc(NC(=O)c5ccc(NC(C)=O)cc5)ccc4[nH]3)cc2)cc1 [Compound C3] | Increase Il10 Transcription

Test system: human B cells
Assay: IL-10 induction in human B cells cultivated with anti-IgM plus CpG
Type: cell-based
Conditions: B-cell, 48 h, 2 days, IL-10 in cell culture supernatants, read-out: IL-10 mean induction fold in human B cells treated with compound compared to DMSO control
Method: Human B cells isolated magnetically through negative selection (B Cell Isolation Kit II, human, Miltenyi ref: 130-091-151) were cultivated for 2 consecutive days in the presence of anti-IgM plus CpG in the presence of the indicated molecule (see table 1) at 0.25 μM final concentration, or DMSO as control. IL-10 was measured in cell culture supernatants, and the IL-10 induction fold was calculated for each molecule compared to the DMSO control.
Human B cells isolated magnetically through negative selection (B Cell Isolation Kit II, human, Miltenyi ref: 130-091-151) were cultivated for 2 consecutive days in the presence of anti-IgM plus CpG in the presence of DMSO (as control) or in the presence of the tested molecule at 0.25 μM final concentration. IL-10 was measured in cell culture supernatants. NS: non stimulated B cell culture condition.

Row | Structure (SMILES) | fold induction at 0.25 µM
6 | COc1cccc(F)c1C(=O)Nc1ccc2[nH]c(-c3ccc(F)cc3)nc2c1 [Compound 1, 2-Fluoro-N-[2-(4-fluorophenyl)-1H-benzimidazol-6-yl]-6-methoxybenzamide] | 1.91
7 | CN(C)S(=O)(=O)c1cc(C(=O)Nc2ccc3[nH]c(-c4ccc(F)cc4)nc3c2)ccc1Cl [Compound 4, 4-Chloro-3-[(dimethylamino)sulfonyl]-N-[2-(4-fluorophenyl)-1H-benzimidazol-6-yl]benzamide] | 1.49
8 | O=C(Nc1ccc(-c2nc3ccc(NC(=O)c4ccc(/N=C/c5ccccc5O)cc4)c(Cl)c3[nH]2)cc1)c1ccc(/N=C/c2ccccc2O)cc1 [Compound 22, N-[4-(7-chloro-6-{[(4-{[(E)-(2-hydroxyphenyl)methylidene]amino}phenyl)carbonyl]amino}-1H-benzimidazol-2-yl)phenyl]-4-{[(E)-(2-hydroxyphenyl)methylidene]amino} benzamide] | 1.34
9 | Cc1ccc(-c2nn3c4ccc(NC(=O)c5ccccc5I)cc4nc3c3ccccc23)cc1 [Compound 30, 2-lodo-N-[5-(4-methyl-phenyl)benzimidazo[2,1-a]phthalazin-10-yl]benzamide] | 1.37
10 | Cc1ccc(-c2nn3c4ccc(NC(=O)c5ccccc5)cc4nc3c3ccccc23)cc1 [Compound 31, N-[5-(4-Methylphenyl)benzimidazo [2,1-a]phthalazin-10-yl]benzamide] | 1.72
11 | COc1ccccc1C(=O)Nc1ccc2c(c1)nc1c3ccccc3c(-c3ccc(C)cc3)nn21 [Compound 32, 2-Methoxy-N-[5-(4-methylphenyl)benzimidazo [2,1-a]phthalazin-10-yl]benzamide] | 1.42
12 | COc1ccccc1C(=O)Nc1ccc2c(c1)nc1c3ccccc3c(C)nn21 [Compound 40, 2-Methoxy-N-(5-methylbenzimidazo[2,1-a]phthalazin-10-yl)benzamide] | 1.72
13 | O=C(Nc1ccc2c(c1)nc1c3ccccc3c(-c3ccc(Cl)cc3)nn21)c1ccccc1 [Compound 43, N-[5-(4-Chloro-phenyl)benzimidazo[2,1-a]phthalazin-10-yl]benzamide] | 1.3
14 | CSc1ccccc1C(=O)Nc1ccc2[nH]c(-c3cccc(F)c3)nc2c1 [Compound 52, N-[2-(3-Fluorophenyl)-1H-benzimidazol-6-yl]-2-(methylthio)benzamide] | 1.91
15 | O=C(Nc1ccc2[nH]c(-c3ccc(F)cc3)nc2c1)c1cc(F)cc2nccnc12 [Compound 54, 7-Fluoro-N-[2-(4-fluorophenyl)-1H-benzimidazol-6-yl]-5-quinoxalinecarboxamide] | 1.71
16 | O=C(Nc1ccc2[nH]c(-c3cc(F)ccc3F)nc2c1)c1cc(F)cc2nccnc12 [Compound 56, N-[2-(2,5-Difluorophenyl)-1H-benzimidazol-6-yl]-7-fluoro-5-quinoxalinecarboxamide] | 1.76
17 | O=C(Nc1ccc2[nH]c(-c3cccc(F)c3)nc2c1)c1ccc(-n2cc[nH]c2=S)cc1 [Compound 57, N-[2-(3-fluorophenyl)-1H-benzimidazol-5-yl]-4-(2-sulfanylidene-3H-imidazol-1-yl)benzamide] | 1.33
18 | O=C1CCSc2ccc(C(=O)Nc3ccc4[nH]c(-c5cccc(F)c5)nc4c3)cc2N1 [Compound 58, N-[2-(3-fluorophenyl)-1H-benzimidazol-5-yl]-4-oxo-3,5-dihydro-2H-1,5-benzothiazepine-7-carboxamide] | 1.56
19 | O=C(Nc1ccc2[nH]c(-c3ccccc3Cl)nc2c1)c1ccccc1N1CCOCC1 [Compound 61, N-[2-(2-Chlorophenyl)-1H-benzimidazol-6-yl]-2-(4-morpholinyl)benzamide] | 2.18
20 | Nc1ccc(C(=O)Nc2ccc(-c3nc4cc(NC(=O)c5ccc(N)cc5)c(Cl)cc4[nH]3)cc2)cc1 [Compound 67, 4-Amino-N-[4-[5-[(4-aminobenzoyl)amino]-6-chloro-1H-benzimidazol-2-yl]phenyl]benzamide] | 1.84
21 | O=C(Nc1ccc2[nH]c(-c3cccnc3)nc2c1)c1ccccc1 [Compound 107, N-[2-(3-Pyridinyl)-1H-benzimidazol-6-yl]benzamide] | 1.33
22 | Fc1cccc(-c2nc3cc(Br)ccc3[nH]2)c1 [Compound 110, 6-Bromo-2-(3-fluorophenyl)-1H-benzimidazole] | 1.43
23 | Fc1ccc(-c2nc3cc(Br)ccc3[nH]2)cc1 [Compound 111, 6-Bromo-2-(4-fluorophenyl)-1H-benzimidazole] | 1.56
24 | O=C(Nc1ccc2nc(-c3ccc(F)cc3)[nH]c2c1)c1ccccc1 [Compound 116, N-[2-(4-Fluorophenyl)-1H-benzimidazol-6-yl]benzamide] | 1.48
25 | O=C(Nc1ccc2nc(-c3cccc(F)c3)[nH]c2c1)c1ccccc1 [Compound 117, N-(2-(3-fluorophenyl)-1H-benzo[d]imidazol-6-yl)benzamide] | 1.93
26 | O=C(Nc1ccc2nc(-c3ccccc3F)[nH]c2c1)c1ccccc1 [Compound 120, N-(2-(2-fluorophenyl)-1H-benzo[d]imidazol-6-yl)benzamide] | 1.68
27 | COc1ccccc1C(=O)Nc1ccc2nc(-c3cccnc3)[nH]c2c1 [Compound 124, 2-Methoxy-N-[2-(3-pyridinyl)-1H-benzimidazol-6-yl]benzamide] | 3.5
28 | Fc1ccccc1-c1nc2ccc(Br)cc2[nH]1 [Compound 136, 6-bromo-2-(2-fluorophenyl)-1H-Benzimidazole] | 2.88
29 | COc1ccccc1C(=O)Nc1ccc2nc(-c3ccc(F)cc3)[nH]c2c1 [Compound 145, N-(2-(4-fluorophenyl)-1H-benzo[d]imidazol-6-yl)-2-methoxybenzamide] | 1.59
30 | COc1ccccc1C(=O)Nc1ccc2nc(-c3cccc(F)c3)[nH]c2c1 [Compound 153, N-(2-(3-fluorophenyl)-1H-benzo[d]imidazol-6-yl)-2-methoxybenzamide] | 1.38
31 | COc1ccccc1C(=O)Nc1ccc2nc(-c3ccccc3F)[nH]c2c1 [Compound 157, N-(2-(2-fluorophenyl)-1H-benzo[d]imidazol-6-yl)-2-methoxybenzamide] | 1.61
32 | COc1ccccc1NC(=O)c1ccc2nc(-c3ccccc3)[nH]c2c1 [Compound 366, N-(2-methoxyphenyl)-2-phenyl-1H-benzo[d]imidazole-6-carboxamide] | 1.95
33 | COc1ccccc1NC(=O)c1ccc2nc(-c3ccccc3F)[nH]c2c1 [Compound 371, 2-(2-fluorophenyl)-N-(2-methoxyphenyl)-1H-benzo[d]imidazole-6-carboxamide] | 1.84
34 | COc1ccccc1NC(=O)c1ccc2nc(-c3cccnc3)[nH]c2c1 [Compound 375, N-(2-methoxyphenyl)-2-(pyridin-3-yl)-1H-benzo[d]imidazole-6-carboxamide] | 1.6
35 | O=C(Nc1ccc2[nH]c(-c3ccccc3)nc2c1)c1ccccc1 [Compound N4, N-(2-Phenyl-1H-benzimidazol-6-yl)benzamide] | 1.61

Test system: resting mouse B cells from spleen of IL-10.eGFP mice
Assay: High throughput flow cytometry-based phenotypic screen for IL-10 inducers
Type: cell-based
Conditions: 10 μM, LPS, 72 hours
Method: Resting mouse B cells were isolated from spleen of IL-10.eGFP mice by magnetic depletion of CD43+ cells, and stimulated for 72 hours in 384-well plates in the presence of chemical compounds at 10 μM final. The chemical library originated from the Leibniz-Forschungsinstitut für Molekulare Pharmakologie (FMP) (Berlin, Germany). The frequency of IL-10-expressing B cells was then measured in each well by flow cytometry.

Row | Structure (SMILES) | IL-10 expression in stimulated B cells
36 | CC(=O)Nc1ccc(C(=O)Nc2ccc(-c3nc4cc(NC(=O)c5ccc(NC(C)=O)cc5)ccc4[nH]3)cc2)cc1 [Compound C3] | markedly increases IL-10 expression
